From US8518894B2, “Human milk peptides” (priority 2009, dated 2013)
Entries after “also recorded” stand apart in the source; their conditions may differ.

Legend:
[1] = test system: TNF-α expression in RAW 264.7 cells; assay: Cytokine expression in LPS-activated mouse macrophage cell line, TNF-α ELISA; assay type: cell-based; details: 1 μg/ml LPS, 24 hours
[2] = test system: MCP-1 secretion from human PBMCs; assay: MCP-1 secretion from peripheral blood mononuclear cells after peptide exposure (sandwich ELISA); assay type: cell-based; details: 24 h exposure, 20 and 100 μg/ml
Protocol: FIG. 13 illustrates stimulation of MCP-1 and Gro-a sectretion from human peripheral blood mononuclear cells (PBMCs) after 24 h exposure to peptides 1-8 (SEQ ID NOs. 1, 29, 2, 8, 9, 19, and 22, respectively) from fraction #23. The experiment was carried out in 4 biological replicates (4 different donors), with 2 technical repeats in each biological experiment. The peptide fragments were tested at 2 concentrations, 20 and 100 μg/ml and MCP-1 and Gro-a were detected by sandwich ELISA kits (BioSource International and eBiosciences, respectively). A positive control peptide (1002) was used in the experiment.
Venous blood from healthy volunteers is collected in Vacutainer® collection tubes containing sodium heparin as an anticoagulant (BD Biosciences). […] The buffy coat is collected and washed twice in RPMI 1640 complete medium, and the number of PBMCs can be determined by trypan blue exclusion. […]
Following 24 hrs of peptide exposure, the tissue culture supernatants are centrifuged at 16,000G (13,000 rpm) at 4° C. for 5 minutes in an IEC MicroMax centrifuge to obtain cell-free samples. […] Cytokines/chemokines are detected by sandwich ELISA kits (BioSource International or eBiosciences) and multiplex kit (Luminex). […] The concentration of the cytokines/chemokines in the culture medium can be quantified by establishing a standard curve with serial dilutions of the recombinant human cytokines/chemokines. […]

[3] = Oxygen Radical Absorbance Capacity (ORAC) assay; details: synthetic peptides; for ORAC value (scavenging activity): per g of peptide
Protocol: This assay measures the scavenging capacity of antioxidant nutrients against the peroxyl radical [Diehl-Jones W L and Askin D F. American Association of Critical Care Nurses (AACN) Clin Issues 15: 83 (2004)], which is one of the most common reactive oxygen species (ROS) in the human body. […] To identify the peptides in fraction #23, the sample was injected into an LC-MS/MS system.

[4] = test system: IL-8 secretion in Caco-2 cells; assay: LPS induced IL-8 secretion in Caco-2 cell culture model; assay type: cell-based; details: 50, 100, 200 μg/ml, 4, 8, 20, 24 h
Text: Culture medium for non-peptide treated cells was used as control. *P<0.05 indicates a significant difference between the 23-8 treated group and the control group (one-way ANOVA, n=4).

[5] = test system: IL-6 expression in RAW 264.7 cells; assay: Cytokine expression in LPS-activated mouse macrophage cell line, IL-6 ELISA; assay type: cell-based; details: 100 μg/ml peptide, 1 μg/ml LPS, 24 hours
Protocol: FIG. 11 illustrates the effects of peptides of fraction #23 and tryptophan on TNF-α and IL-6 expression in RAW 246.7 cells. All values expressed in pg/ml +/− SD. Cells grown in 24-well culture tissue-culture grade plates (Corning) and incubated with 100 μg/ml of one of eight milk peptides 1-8 (SEQ ID NOs. 28, 1, 29, 2, 8, 9, 19, and 22, respectively) and 1 μg/ml LPS.
A mouse macrophage cell line (RAW 264.7) was activated with 1 μg/m1 lipopolysaccharide (LPS), a gram negative bacterial cell wall product which induces the expression of inflammatory cytokines (Interleukin-6 [IL-6] and Tumor Necrosis Factor alpha [TNF-α]) via activation of toll-like receptors [Wu, T. T. et al. Toxicol Let. 195-202 (2009). After incubation with LPS for 24 hours in the presence of the peptides from example 7, cell supernatant was collected and mouse IL-6 and TNF-α titres were determined by a standard micro-plate enzyme-linked immunosorbent assay (ELISA) technique (e-Biosciences).

Row | Molecule | ORAC value (scavenging activity) [3] [uM Trolox/g] | radical scavenging activity in ORAC assay (in words) [3] | TNF-α expression compared to the control (cell culture medium plus LPS) ([1]; 100 μg/ml peptide) | other results
1 | N[C@@H](Cc1c[nH]c2ccccc12)C(=O)O [tryptophan, L-tryptophan, reference compound] |  |  |  | TNF-α expression compared to the control (cell culture medium plus LPS) ([1]; 100 μM tryptophan): greatest inhibition
2 | HNPI (listed as Homo sapiens) [SEQ ID NO. 28, fragment from human beta casein in fraction #23] | 114 ±14 |  |  | levels of MCP-1 from PBMCs [2]: robust response; also recorded: significant activity
3 | ISELGW (listed as Homo sapiens) [SEQ ID NO. 22, tryptophan-containing peptide of fraction #23, not matched to a human milk protein] |  | most radical scavenging properties | significantly inhibited | LPS induced interleukin-8 (IL-8) secretion [4]: decrease; IL-6 expression [5]: significantly reduced; levels of MCP-1 from PBMCs [2]: robust response; also recorded: significantly increased
4 | PLAQPA (listed as Homo sapiens) [SEQ ID NO. 29, fragment from human beta casein in fraction #23] |  | No scavenging activities | significantly inhibited | 
5 | SEQ ID NO. 2: human beta-casein f(169-173), identified in fraction #23 (VPYPQ; listed as Homo sapiens) | 3940±623 |  | significantly inhibited | 
6 | SEQ ID NO. 8: human kappa-casein f(31-36), identified in fraction #23 (VPNSYP; listed as Homo sapiens) | 3462±560 |  |  | 
7 | SEQ ID NO. 9: human kappa-casein f(53-58), identified in fraction #23 (NPYVPR; listed as Homo sapiens) | 3380±592 |  |  | 
8 | SEQ ID NO. 19: tyrosine-containing peptide of fraction #23, not matched to a human milk protein (YGYTGA; listed as Homo sapiens) | 8205±552 | most radical scavenging properties | significantly inhibited | 
9 | VPVQA (listed as Homo sapiens) [SEQ ID NO. 1, fragment from human beta casein in fraction #23] |  | No scavenging activities | significantly inhibited | 
